Laboratory results as given in patent publication US20070128235A1, “Juvenile hormone transmethylase genes and method of using the same” (Inc. Admin Agency Natl Agr and Bio-oriented Research Org, priority 2003, published 2007).

Tests used:
[1] = molecular target: T1, recombinant Drosophila melanogaster JHAMT (Drosophila melanogaster, UniProt Q9VJK8, F166Y/S182N); experiment: Molecular activity of recombinant Drosophila melanogaster juvenile hormone acid methyltransferase; format: biochemical; conditions: Tris-HCL 50 mM, pH 7.5; 25° C.; 1 mM S-adenosyl methionine and 100 μM of each JH acid; mean±standard deviation, n=3
T1 construct: to amplify the coding region of the juvenile hormone acid methyltransferase gene from Drosophila melanogaster; made in house
Experimental: (§1) A reverse phase column (CAPCELL PAK C18 UG80 S-5, 3×150 mm, Shiseido) was attached to an HPLC apparatus (JASCO), and juvenile hormones were detected by measuring absorbance at 217 nm using an ultraviolet detector. Samples were flowed at a rate of 0.5 ml/min, at a column retention temperature of 40° C., for 20 minutes, in 60% acetonitrile or 80% acetonitrile.
100 μg of a juvenile hormone acid (either JH I acid, JH II acid, JH III acid, or farnesoic acid) dissolved in toluene was transferred into a silicone-treated glass test tube (10×150 mm) using a glass capillary, and the solvent was removed under a nitrogen stream. 800 μl of buffer (50 mM Tris-Cl, pH 7.5) and 100 μl of 10 mM S-adenosyl methionine solution were added thereto and mixed sufficiently, then left to stand in a 25° C. thermostat water bath for five minutes. 100 μl of the recombinant protein solution obtained by the method of Example 3 was added thereto to initiate enzyme reaction. After ten minutes, 250 μl of reaction termination solution (methanol:water:concentrated aqueous ammonia=10:9:1) was added to terminate the enzyme reaction 1 ml of isooctane was added and mixed sufficiently, then the mixture was centrifuged (2,000 rpm, 15 minutes, room temperature) to separate the organic solvent layer and the aqueous layer. […] The molecular activities of the recombinant Bombyx mori JHAMT against JH I acid, JH II acid, JH III acid, and farnesoic acid were determined in conditions where the buffer was Tris-HCL (50 mM, pH 7.5), the reaction temperature was 25° C., and the substrates were 1 mM of S-adenosyl methionine and 100 μM of each JH acid. […]
cDNAs synthesized by reverse transcription of RNA extracted from a whole adult Drosophila melanogaster were used as a template for PCR using the DMJF primer (SEQ ID NO: 17) and DMJR primer (SEQ ID NO: 18) to amplify the coding region of the juvenile hormone acid methyltransferase gene from Drosophila melanogaster. […] The activity of the recombinant protein was determined by the same method as in Example 4, confirming that the protein encoded by the gene had juvenile hormone acid methyltransferase activity. The molecular activities of the recombinant Drosophila melanogaster JHAMT against JH I acid, JH II acid, JH III acid, and farnesoic acid were determined under conditions where the buffer was Tris-HCL (50 mM, pH 7.5), the reaction temperature was 25° C., and the substrates were 1 mM of S-adenosyl methionine and 100 μM of each JH acid. These activities were determined to be 2.67±0.44, 2.07±0.26, 1.76±0.13, and 2.3±0.51 (mean±standard deviation, n=3), respectively.

[2] = tested on: recombinant Bombyx mori JHAMT; experiment: Juvenile hormone synthesis by recombinant juvenile hormone acid methyltransferase (enzyme reaction, reverse phase HPLC); format: biochemical; conditions: 25° C.; for production of the corresponding active juvenile hormone in the reaction solution: 100 μg substrate, S-adenosyl methionine, ten minutes, reverse phase HPLC (FIG. 4); for molecular activity (number of substrate molecules changed to reaction product by one molecule of the enzyme in one minute): Tris-HCL 50 mM, pH 7.5, 1 mM S-adenosyl methionine and 100 μM of each JH acid, mean±standard deviation, n=3
Experimental: as §1
100 μg of a juvenile hormone acid (either JH I acid, JH II acid, JH III acid, or farnesoic acid) dissolved in toluene was transferred into a silicone-treated glass test tube (10×150 mm) using a glass capillary, and the solvent was removed under a nitrogen stream. 800 μl of buffer (50 mM Tris-Cl, pH 7.5) and 100 μl of 10 mM S-adenosyl methionine solution were added thereto and mixed sufficiently, then left to stand in a 25° C. thermostat water bath for five minutes. 100 μl of the recombinant protein solution obtained by the method of Example 3 was added thereto to initiate enzyme reaction. After ten minutes, 250 μl of reaction termination solution (methanol:water:concentrated aqueous ammonia=10:9:1) was added to terminate the enzyme reaction 1 ml of isooctane was added and mixed sufficiently, then the mixture was centrifuged (2,000 rpm, 15 minutes, room temperature) to separate the organic solvent layer and the aqueous layer. 100 μl of the organic solvent layer was transferred into a small vial using a glass capillary, and then the solvent was removed under a nitrogen stream to obtain a residue, which was dissolved in 100 μl of acetonitrile to analyze the synthesized juvenile hormone by a method using reverse phase HPLC. […] The molecular activities of the recombinant Bombyx mori JHAMT against JH I acid, JH II acid, JH III acid, and farnesoic acid were determined in conditions where the buffer was Tris-HCL (50 mM, pH 7.5), the reaction temperature was 25° C., and the substrates were 1 mM of S-adenosyl methionine and 100 μM of each JH acid. These activities (the number of substrate molecules changed to reaction product by one molecule of the enzyme in one minute) were 1.80±0.32, 1.65±0.23, 0.79 ±0.06, and 0.48±0.07 (mean±standard deviation n=3), respectively. When a saturated straight chain fatty acid or an unsaturated straight chain fatty acid was used as a substrate, methyl esterification by the enzyme was not observed. Therefore, the enzyme reaction was substrate-specific to juvenile hormone acid.

T1 sequence (Q9VJK8 whole entry F166Y/S182N): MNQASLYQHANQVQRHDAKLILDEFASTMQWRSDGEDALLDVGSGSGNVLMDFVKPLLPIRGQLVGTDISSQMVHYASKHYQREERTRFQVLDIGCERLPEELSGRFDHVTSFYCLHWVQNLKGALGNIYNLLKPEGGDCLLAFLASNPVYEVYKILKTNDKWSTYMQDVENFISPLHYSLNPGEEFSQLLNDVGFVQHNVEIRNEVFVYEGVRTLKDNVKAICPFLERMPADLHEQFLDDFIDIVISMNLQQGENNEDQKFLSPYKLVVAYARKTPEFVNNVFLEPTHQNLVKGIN

Compound | molecular activity [1] | production of the corresponding active juvenile hormone in the reaction solution [2] | molecular activity (number of substrate molecules changed to reaction product by one molecule of the enzyme in one minute) [2]
CC/C(=C\CC/C(C)=C/C(=O)O)CCC1OC1(C)CC (stereo not drawn) [JH I acid] | 2.67±0.44 | confirmed to be produced | 1.80±0.32
CC[C@]1(C)O[C@@H]1CC/C(C)=C/CC/C(C)=C/C(=O)O [JH II acid] | 2.07±0.26 | confirmed to be produced | 1.65±0.23
C/C(=C\C(=O)O)CC/C=C(\C)CCC1OC1(C)C (stereo not drawn) [JH III acid] | 1.76±0.13 | confirmed to be produced | 0.79 ±0.06
CC(C)=CCCC(C)=CCCC(C)=CC(=O)O [farnesoic acid] | 2.3±0.51 | confirmed to be produced | 0.48±0.07
